How the values were obtained:
Type in all cases: cell-based
[1] = test system: Lactobacillus rennini DSM 20253; assay: Antimicrobial action of licoricidin in liquid seasoning (1), lactic acid bacteria A; details: conclusion of Test Example 4; various salt concentration and various alcohol concentrations; lactic acid bacteria A to D
Procedure: Commercially available whole soybean soy sauce (produced by Kikkoman Corporation) was electrodialyzed and then concentrated under reduced pressure to obtain soy sauce at a salt concentration of 0% (w/v) and an alcohol concentration of 0% (v/v). Then, salt and/or alcohol was added to the above-mentioned obtained soy sauce, and the mixture was heat-treated to produce soy sauces at salt concentrations and alcohol concentrations shown in the following Table 5. The pHs of the soy sauces were 4.9 to 5.0. […]
Licoricidin (produced by ChemFaces) was added to each of the liquid seasonings produced in the above-mentioned (1) to concentrations of 1 ppm, 5 ppm, 10 ppm, 25 ppm, and 50 ppm. Lactic acid bacteria described in the following Table 9 were then added to 10^6 to 10^7 cells/mL and cultured at 30° C. for 7 days. After the culture, the number of lactic acid bacteria was measured using the GAM agar medium “Nissui”. Liquid seasoning to which licoricidin was not added was used as a control group, and the antimicrobial activity was evaluated in comparison with the number of lactic acid bacteria in the control group. The evaluation was performed using the criterion shown below. […]

[2] = test system: Lactobacillus acidipiscis NBRC 102163; assay: Antimicrobial action of licoricidin in liquid seasoning (1), lactic acid bacteria C; parameters: key: A: The bacterial count decreases to less than 10% of the bacterial count of the control group.; B: The bacterial count decreases to 10% or more and less than 50% of the bacterial count of the control group.; C: The bacterial count decreases to 50% or more and less than 100% of the bacterial count of control group.; D: The bacterial count is the same as the bacterial count of the control group
Procedure: Commercially available whole soybean soy sauce (produced by Kikkoman Corporation) was electrodialyzed and then concentrated under reduced pressure to obtain soy sauce at a salt concentration of 0% (w/v) and an alcohol concentration of 0% (v/v). Then, salt and/or alcohol was added to the above-mentioned obtained soy sauce, and the mixture was heat-treated to produce soy sauces at salt concentrations and alcohol concentrations shown in the following Table 5. The pHs of the soy sauces were 4.9 to 5.0.
Specifically, components contained in dried bonito was extracted with alcohol and water; sugar, salt, and seasonings were blended with the obtained extract; and the resulting mixture was heated to produce bonito stock. The salt concentration of the obtained bonito stock was 0.2% (w/v), the alcohol concentration was 0.15% (v/v), and the pH was 6.1.
Specifically, Koikuchi soy sauce (produced by Kikkoman Corporation), granulated sugar, potato starch, and water were blended in amounts shown in following Table 7, and the resulting mixture was heated to produce sauce. The salt concentration of the obtained sauce was 5.3% (w/v), the alcohol concentration was 0.8% (v/v), and the pH was 5.0.
(§1) Specifically, the components contained in dried bonito was extracted with water; Koikuchi soy sauce (produced by Kikkoman Corporation), sugar, and salt were blended with the obtained extract; and the resulting mixture was heated to produce Japanese seasoned soup stock. The salt concentration of the obtained Japanese seasoned soup stock was 3% (w/v), the alcohol concentration was 0.4% (v/v), and the pH was 5.5.
Licoricidin (produced by ChemFaces) was added to each of the liquid seasonings produced in the above-mentioned (1) to concentrations of 1 ppm, 5 ppm, 10 ppm, 25 ppm, and 50 ppm. Lactic acid bacteria described in the following Table 9 were then added to 10^6 to 10^7 cells/mL and cultured at 30° C. for 7 days. After the culture, the number of lactic acid bacteria was measured using the GAM agar medium “Nissui”. Liquid seasoning to which licoricidin was not added was used as a control group, and the antimicrobial activity was evaluated in comparison with the number of lactic acid bacteria in the control group. The evaluation was performed using the criterion shown below.
• A: The bacterial count decreases to less than 10% of the bacterial count of the control group. • B: The bacterial count decreases to 10% or more and less than 50% of the bacterial count of the control group. • C: The bacterial count decreases to 50% or more and less than 100% of the bacterial count of control group. • D: The bacterial count is the same as the bacterial count of the control group.

[3] = test system: Bacillus coagulans (IFO12714); assay: Antimicrobial action of licoricidin on flat sour bacteria in Japanese seasoned soup stock (Test Example 8); parameters: key to Evaluation (antimicrobial activity by comparing the pHs): A: There is no change in pH as compared with the control.; B: The pH decreases as compared with the control; details: for pH: Japanese seasoned soup stock (salt 3% (w/v), alcohol 0.4% (v/v), pH 5.2), cultured at 45° C. for 7 days; for Evaluation (antimicrobial activity by comparing the pHs): Japanese seasoned soup stock
Procedure: as §1, with “Specifically,” for “Specifically, the”, “5.2.” for “5.5.”
Licoricidin (produced by ChemFaces) was added to the produced Japanese seasoned soup stock to concentrations of 1 ppm, 5 ppm, 10 ppm, 25 ppm, and 50 ppm. Flat sour bacteria (Bacillus coagulans (IFO12714)) were then added to 10^4 to 10^5 cells/mL and cultured at 45° C. for 7 days. Japanese seasoned soup stock to which licoricidin was not added was used as a control, and the antimicrobial activity was evaluated by comparing the pHs. The evaluation was performed using the following criterion.
• A: There is no change in pH as compared with the control. • B: The pH decreases as compared with the control.

Compound: COc1c(CC=C(C)C)c(O)cc2c1C[C@H](c1ccc(O)c(CC=C(C)C)c1O)CO2 [Licoricidin, 4-[(R)-7-hydroxy-5-methoxy-6-(3-methyl-2-butenyl)chroman-3-yl]-2-(3-methyl-2-butenyl)-1,3-benzenediol]
- Antimicrobial activity to various lactic acid bacteria [1]: exhibited antimicrobial activity
- Antimicrobial activity ([2]; Bonito stock (salt 0.2% (w/v), alcohol 0.15% (v/v), pH 6.1), licoricidin 1 ppm): C (The bacterial count decreases to 50% or more and less than 100% of the bacterial count of control group.)
- Antimicrobial activity ([2]; Bonito stock (salt 0.2% (w/v), alcohol 0.15% (v/v), pH 6.1), licoricidin 5 ppm): A (The bacterial count decreases to less than 10% of the bacterial count of the control group.)
- Antimicrobial activity ([2]; Bonito stock (salt 0.2% (w/v), alcohol 0.15% (v/v), pH 6.1), licoricidin 10 ppm): A (The bacterial count decreases to less than 10% of the bacterial count of the control group.)
- Antimicrobial activity ([2]; Bonito stock (salt 0.2% (w/v), alcohol 0.15% (v/v), pH 6.1), licoricidin 25 ppm): A (The bacterial count decreases to less than 10% of the bacterial count of the control group.)
- Antimicrobial activity ([2]; Bonito stock (salt 0.2% (w/v), alcohol 0.15% (v/v), pH 6.1), licoricidin 50 ppm): A (The bacterial count decreases to less than 10% of the bacterial count of the control group.)
- Antimicrobial activity ([2]; Japanese seasoned soup stock (salt 3% (w/v), alcohol 0.4% (v/v), pH 5.5), licoricidin 1 ppm): D
- Antimicrobial activity ([2]; Japanese seasoned soup stock (salt 3% (w/v), alcohol 0.4% (v/v), pH 5.5), licoricidin 5 ppm): A (The bacterial count decreases to less than 10% of the bacterial count of the control group.)
- Antimicrobial activity ([2]; Japanese seasoned soup stock (salt 3% (w/v), alcohol 0.4% (v/v), pH 5.5), licoricidin 10 ppm): A (The bacterial count decreases to less than 10% of the bacterial count of the control group.)
- Antimicrobial activity ([2]; Japanese seasoned soup stock (salt 3% (w/v), alcohol 0.4% (v/v), pH 5.5), licoricidin 25 ppm): A (The bacterial count decreases to less than 10% of the bacterial count of the control group.)
- Antimicrobial activity ([2]; Japanese seasoned soup stock (salt 3% (w/v), alcohol 0.4% (v/v), pH 5.5), licoricidin 50 ppm): A (The bacterial count decreases to less than 10% of the bacterial count of the control group.)
- Antimicrobial activity ([2]; Sauce (salt 5.3% (w/v), alcohol 0.8% (v/v), pH 5.0), licoricidin 1 ppm): B (The bacterial count decreases to 10% or more and less than 50% of the bacterial count of the control group.)
- Antimicrobial activity ([2]; Sauce (salt 5.3% (w/v), alcohol 0.8% (v/v), pH 5.0), licoricidin 5 ppm): B (The bacterial count decreases to 10% or more and less than 50% of the bacterial count of the control group.)
- Antimicrobial activity ([2]; Sauce (salt 5.3% (w/v), alcohol 0.8% (v/v), pH 5.0), licoricidin 10 ppm): A (The bacterial count decreases to less than 10% of the bacterial count of the control group.)
- Antimicrobial activity ([2]; Sauce (salt 5.3% (w/v), alcohol 0.8% (v/v), pH 5.0), licoricidin 25 ppm): A (The bacterial count decreases to less than 10% of the bacterial count of the control group.)
- Antimicrobial activity ([2]; Sauce (salt 5.3% (w/v), alcohol 0.8% (v/v), pH 5.0), licoricidin 50 ppm): A (The bacterial count decreases to less than 10% of the bacterial count of the control group.)
- Antimicrobial activity ([2]; Soy sauce, salt 0% (w/v), alcohol 0% (v/v), licoricidin 1 ppm): C (The bacterial count decreases to 50% or more and less than 100% of the bacterial count of control group.)
- Antimicrobial activity ([2]; Soy sauce, salt 0% (w/v), alcohol 0% (v/v), licoricidin 5 ppm): C (The bacterial count decreases to 50% or more and less than 100% of the bacterial count of control group.)
- Antimicrobial activity ([2]; Soy sauce, salt 0% (w/v), alcohol 0% (v/v), licoricidin 10 ppm): B (The bacterial count decreases to 10% or more and less than 50% of the bacterial count of the control group.)
- Antimicrobial activity ([2]; Soy sauce, salt 0% (w/v), alcohol 0% (v/v), licoricidin 25 ppm): A (The bacterial count decreases to less than 10% of the bacterial count of the control group.)
- Antimicrobial activity ([2]; Soy sauce, salt 0% (w/v), alcohol 0% (v/v), licoricidin 50 ppm): A (The bacterial count decreases to less than 10% of the bacterial count of the control group.)
- Antimicrobial activity ([2]; Soy sauce, salt 4% (w/v), alcohol 0% (v/v), licoricidin 1 ppm): C (The bacterial count decreases to 50% or more and less than 100% of the bacterial count of control group.)
- Antimicrobial activity ([2]; Soy sauce, salt 4% (w/v), alcohol 0% (v/v), licoricidin 5 ppm): A (The bacterial count decreases to less than 10% of the bacterial count of the control group.)
- Antimicrobial activity ([2]; Soy sauce, salt 4% (w/v), alcohol 0% (v/v), licoricidin 10 ppm): A (The bacterial count decreases to less than 10% of the bacterial count of the control group.)
- Antimicrobial activity ([2]; Soy sauce, salt 4% (w/v), alcohol 0% (v/v), licoricidin 25 ppm): A (The bacterial count decreases to less than 10% of the bacterial count of the control group.)
- Antimicrobial activity ([2]; Soy sauce, salt 4% (w/v), alcohol 0% (v/v), licoricidin 50 ppm): A (The bacterial count decreases to less than 10% of the bacterial count of the control group.)
- Antimicrobial activity ([2]; Soy sauce, salt 8% (w/v), alcohol 0% (v/v), licoricidin 1 ppm): D
- Antimicrobial activity ([2]; Soy sauce, salt 8% (w/v), alcohol 0% (v/v), licoricidin 5 ppm): A (The bacterial count decreases to less than 10% of the bacterial count of the control group.)
- Antimicrobial activity ([2]; Soy sauce, salt 8% (w/v), alcohol 0% (v/v), licoricidin 10 ppm): A (The bacterial count decreases to less than 10% of the bacterial count of the control group.)
- Antimicrobial activity ([2]; Soy sauce, salt 8% (w/v), alcohol 0% (v/v), licoricidin 25 ppm): A (The bacterial count decreases to less than 10% of the bacterial count of the control group.)
- Antimicrobial activity ([2]; Soy sauce, salt 8% (w/v), alcohol 0% (v/v), licoricidin 50 ppm): A (The bacterial count decreases to less than 10% of the bacterial count of the control group.)
- Antimicrobial activity ([2]; Soy sauce, salt 12% (w/v), alcohol 0% (v/v), licoricidin 1 ppm): B (The bacterial count decreases to 10% or more and less than 50% of the bacterial count of the control group.)
- Antimicrobial activity ([2]; Soy sauce, salt 12% (w/v), alcohol 0% (v/v), licoricidin 5 ppm): A (The bacterial count decreases to less than 10% of the bacterial count of the control group.)
- Antimicrobial activity ([2]; Soy sauce, salt 12% (w/v), alcohol 0% (v/v), licoricidin 10 ppm): A (The bacterial count decreases to less than 10% of the bacterial count of the control group.)
- Antimicrobial activity ([2]; Soy sauce, salt 12% (w/v), alcohol 0% (v/v), licoricidin 25 ppm): A (The bacterial count decreases to less than 10% of the bacterial count of the control group.)
- Antimicrobial activity ([2]; Soy sauce, salt 12% (w/v), alcohol 0% (v/v), licoricidin 50 ppm): A (The bacterial count decreases to less than 10% of the bacterial count of the control group.)
- pH ([3]; licoricidin 1 ppm): 4.1
- pH ([3]; licoricidin 5 ppm): 4.1
- pH ([3]; licoricidin 10 ppm): 5.3
- pH ([3]; licoricidin 25 ppm): 5.3
- pH ([3]; licoricidin 50 ppm): 5.2
- Evaluation (antimicrobial activity by comparing the pHs) ([3]; licoricidin 1 ppm): B
- Evaluation (antimicrobial activity by comparing the pHs) ([3]; licoricidin 5 ppm): B
- Evaluation (antimicrobial activity by comparing the pHs) ([3]; licoricidin 10 ppm): A
- Evaluation (antimicrobial activity by comparing the pHs) ([3]; licoricidin 25 ppm): A
- Evaluation (antimicrobial activity by comparing the pHs) ([3]; licoricidin 50 ppm): A
- Antimicrobial activity to flat sour bacteria ([3]; conclusion of Test Example 8): exhibited antimicrobial activity
